Test results published in PMC9933715 (Antimicrobial Agents and Chemotherapy, 2023).
Like-named read-outs stand apart in the source and are kept apart here.

How the values were obtained:
[1] = system: DENV-R2A (Rluc-expressing DENV, serotype 2 strain 16681); experiment: microbe, parasite or virus in culture; format: cell-based, Dengue virus; conditions: for activity at 50 µM: Dengue virus, Huh7.5, 48 h; for inhibitory activity against DENV-R2A (SAR, in words) / antiviral activity against DENV-R2A (SAR, in words): 50 μM; for antiviral activity against DENV-R2A (SAR, in words): NPP3C analogues
[2] = system: ZIKV-R2A (strain FSS13025); experiment: microbe, parasite or virus in culture; format: cell-based; conditions: Zika virus, Huh7.5, 48 h, read-out: ZIKV-R2A replication (fold DMSO) Mean
Huh7.5 cells = experiment: Cell viability, CellTiter-Glo luminescent assay; conditions: for Cell viability (fold DMSO) Mean: deconvolution screen, singletons, uninfected Huh7.5
[3] = read-out: DENV-R2A replication (fold DMSO) Mean, deconvolution screen, singletons, 50 µM, Huh7.5, 2 days postinfection
[4] = 6A1HI analogues, test concentration = 50 µM, Huh7.5 cells
[5] = Table S3, NPP3C analogues, 50 µM, Huh7.5, 2 days postinfection
[6] = Table S3, NPP3C analogues, 50 µM, Huh7.5
[7] = read-out: DENV-R2A replication (Fold DMSO), 6A1HI analogues, test concentration = 50 µM, Huh7.5 cells
[8] = read-out: DENV-R2A replication (fold DMSO), Table 1, NPP3C analogues, 50 μM, Huh7.5, 2 days postinfection
[9] = read-out: DENV-R2A replication (fold DMSO), Table 2, 6A1HI analogues, 50 μM, Huh7.5, 2 days postinfection
[10] = Table 2, 6A1HI analogues, 50 μM, Huh7.5, 2 days
[11] = read-out: DENV-R2A replication (Fold DMSO), Table S3, NPP3C analogues, 50 µM, Huh7.5, 2 days postinfection
[12] = Table 1, NPP3C analogues, 50 μM, Huh7.5, 2 days

SMILES | Cell viability (Fold DMSO) (Huh7.5 cells; [4]) | Cell viability (Fold DMSO) (Huh7.5 cells; [6]) | activity at 50 µM [1, 7] [%] | activity at 50 µM [1, 9] [%] | further results
Cc1cc(O)cc(O)n1 [PS-3153, Cc1cc(O)cc(O)n1] |  |  |  |  | activity at 50 µM [1, 3]: 100%; activity at 50 µM [2]: 109%; Cell viability (fold DMSO) Mean (Huh7.5 cells; 50 µM): 0.97 fold DMSO
Cc1cc(O)nc2ccc(O)cc12 [PS-4921, Cc1cc(O)nc2ccc(O)cc12] |  |  |  |  | activity at 50 µM [1, 3]: 92%; activity at 50 µM [2]: 83%; Cell viability (fold DMSO) Mean (Huh7.5 cells; 50 µM): 1.00 fold DMSO
O=C(Nc1ccccc1)c1ccc(C(F)(F)F)nc1 [Compound 62] | 1.03 | 0.79 |  |  | DENV-R2A replication (Fold DMSO) [1, 4]: 0.93 Fold DMSO; DENV-R2A replication (Fold DMSO) [1, 5]: 0.71 Fold DMSO
N#CCOc1cccc2ccccc12 [MS-7107, N#CCOc1cccc2ccccc12] |  |  |  |  | activity at 50 µM [1, 3]: 65%; activity at 50 µM [2]: 84%; Cell viability (fold DMSO) Mean (Huh7.5 cells; 50 µM): 1.01 fold DMSO
Clc1[nH]ccc2nccc1-2 [PS-4776, Clc1[nH]ccc2nccc12] |  |  |  |  | activity at 50 µM [1, 3]: 84%; activity at 50 µM [2]: 100%; Cell viability (fold DMSO) Mean (Huh7.5 cells; 50 µM): 1.13 fold DMSO
N#CC(Cc1cccnc1)C(=O)Nc1ccccc1 (stereo not drawn) [Compound 68] | 1.03 | 0.93 |  |  | DENV-R2A replication (Fold DMSO) [1, 4]: 1.02 Fold DMSO; DENV-R2A replication (Fold DMSO) [1, 5]: 1.79 Fold DMSO
O=C(Nc1cccc(B(O)O)c1)c1cccnc1 [Compound 52] |  |  | 115 | 115 | activity at 50 µM [1, 8]: 107%
CC(=O)c1ccc2[nH]c(=O)[nH]c2c1 [Compound 76] | 0.98 |  | 87 | 87 | inhibitory activity against DENV-R2A (SAR, in words) ([1]; 6A1HI analogues): loss of inhibitory activity; Cell viability (Fold DMSO) (Huh7.5 cells; [10]): 0.98 fold DMSO
O=C(Nc1ccccc1)N1CCNCC1 [Compound 7] |  |  | 105 | 105 | activity at 50 µM [1, 8]: 82%
OCc1ccc2cn[nH]c2c1 [Compound 3] | 0.93 | 0.94 | 110 | 110 | activity at 50 µM [1, 11]: 89%; Cell viability (Fold DMSO) (Huh7.5 cells; [10]): 0.93 fold DMSO
c1ccc(NCc2cccnc2)cc1 [Compound 63] |  |  | 81 |  | activity at 50 µM [1, 8]: 138%; antiviral activity against DENV-R2A (SAR, in words) [1]: retains little activity, if any
CNC(=O)c1cn(C)c2ccccc12 [Compound 9T-1495, CNC(=O)c1cn(C)c2ccccc12] |  |  |  |  | activity at 50 µM [1, 3]: 103%; activity at 50 µM [2]: 98%
O=C(Nc1ccncc1)c1ccccc1 [Compound 28] | 0.48 | 1.05 |  |  | DENV-R2A replication (Fold DMSO) [1, 4]: 0.09 Fold DMSO; DENV-R2A replication (Fold DMSO) [1, 5]: 1.05 Fold DMSO
Nc1ccc(C(=O)Nc2ccccc2)cc1 [Compound 61] | 0.83 | 0.98 |  |  | DENV-R2A replication (Fold DMSO) [1, 4]: 1.09 Fold DMSO; DENV-R2A replication (Fold DMSO) [1, 5]: 0.98 Fold DMSO
O=C(c1ccccc1)c1cccnc1 [Compound 33] | 0.89 | 0.95 |  |  | DENV-R2A replication (Fold DMSO) [1, 4]: 0.95 Fold DMSO; DENV-R2A replication (Fold DMSO) [1, 5]: 1.14 Fold DMSO
Oc1ccc2[nH]ncc2c1 [Compound 18] | 0.98 | 0.95 | 106 | 106 | activity at 50 µM [1, 11]: 101%; Cell viability (Fold DMSO) (Huh7.5 cells; [10]): 0.98 fold DMSO
Nc1cccc(-c2cccnc2)c1 [Compound 10] | 0.93 | 0.93 |  |  | DENV-R2A replication (Fold DMSO) [1, 4]: 1.00 Fold DMSO; DENV-R2A replication (Fold DMSO) [1, 5]: 1.04 Fold DMSO
O=C(NNC(=O)c1ccncc1)Nc1ccccc1 [Compound 69] | 1.02 | 0.88 |  |  | DENV-R2A replication (Fold DMSO) [1, 4]: 0.98 Fold DMSO; DENV-R2A replication (Fold DMSO) [1, 5]: 1.32 Fold DMSO
O=C(Nc1ccccc1Cl)c1cccnc1 [Compound 29] | 0.96 | 0.95 | 55 |  | activity at 50 µM [1, 8]: 99%; Cell viability (Fold DMSO) (Huh7.5 cells; [12]): 0.95 fold DMSO
O=C(NNc1ccccc1)c1ccncc1 [Compound 54] | 0.95 | 0.67 | 106 |  | activity at 50 µM [1, 8]: 37%; antiviral activity against DENV-R2A (SAR, in words) [1]: retains little activity, if any; Cell viability (Fold DMSO) (Huh7.5 cells; [12]): 0.67 fold DMSO
Nc1cccc(NC(=O)c2cccnc2)c1 [Compound 55] | 1.08 | 0.96 | 134 |  | activity at 50 µM [1, 8]: 75%; Cell viability (Fold DMSO) (Huh7.5 cells; [12]): 0.96 fold DMSO
NC(=O)c1ccc2cn[nH]c2c1 [Compound 75] | 0.99 |  | 106 | 106 | Cell viability (Fold DMSO) (Huh7.5 cells; [10]): 0.99 fold DMSO
NCc1ccc2cn[nH]c2c1 [Compound 6] | 0.76 | 0.77 | 96 | 96 | activity at 50 µM [1, 11]: 55%; Cell viability (Fold DMSO) (Huh7.5 cells; [10]): 0.76 fold DMSO
O=C(Nc1ccc(C(F)(F)F)cc1)c1cccnc1 [Compound 65] | 1.17 | 0.87 | 115 |  | activity at 50 µM [1, 8]: 98%; Cell viability (Fold DMSO) (Huh7.5 cells; [12]): 0.87 fold DMSO
CC(Nc1ccccc1)c1cccnc1 (stereo not drawn) [Compound 56] | 0.98 | 0.94 | 114 |  | activity at 50 µM [1, 8]: 147%; antiviral activity against DENV-R2A (SAR, in words) [1]: retains little activity, if any; Cell viability (Fold DMSO) (Huh7.5 cells; [12]): 0.94 fold DMSO
CC(=O)c1ccc2cn(C)nc2c1 [Compound 4] | 0.75 | 0.96 | 97 | 97 | inhibitory activity against DENV-R2A (SAR, in words) ([1]; 6A1HI analogues): loss of inhibitory activity; activity at 50 µM [1, 11]: 105%; Cell viability (Fold DMSO) (Huh7.5 cells; [10]): 0.75 fold DMSO
O=C1CCc2ccccc21 [PS-5770, O=C1CCc2ccccc12] |  |  |  |  | activity at 50 µM [1, 3]: 103%; activity at 50 µM [2]: 103%
CC(=O)c1cccc2cn[nH]c12 [Compound 9] | 1.03 | 0.96 | 90 | 90 | inhibitory activity against DENV-R2A (SAR, in words) ([1]; 6A1HI analogues): inhibitory activity was completely lost; activity at 50 µM [1, 11]: 107%; Cell viability (Fold DMSO) (Huh7.5 cells; [10]): 1.03 fold DMSO
O=C(NC1CC1)c1ccc(C(F)(F)F)nc1 [Compound 41] | 0.98 | 0.90 |  |  | DENV-R2A replication (Fold DMSO) [1, 4]: 1.13 Fold DMSO; DENV-R2A replication (Fold DMSO) [1, 5]: 1.24 Fold DMSO
CC(=O)c1ccc2c(c1)OCO2 [Compound 42] | 0.93 | 1.15 | 107 | 107 | inhibitory activity against DENV-R2A (SAR, in words) ([1]; 6A1HI analogues): loss of inhibitory activity; activity at 50 µM [1, 11]: 153%; Cell viability (Fold DMSO) (Huh7.5 cells; [10]): 0.93 fold DMSO
